Measured values as given in patent US7105524B2, “Pesticidal and parasiticidal di-and trifluorosubstituted alkene compounds” (BASF Aktiengesellschaft, priority 2001, dated 2006).

Tests used:
[1] = system: root-knot nematode Meloidogyne sp; test: Soil nematicide assay targeting root-knot nematode Meloidogyne sp on tomato (granular formulation); assay type: in vivo; settings: 1 kg/ha, granular formulation of 5% active ingredient on gypsum carrier, infested soil, tomato plants, visual estimation
Protocol: Soil nematicide assay targeting root-knot nematode Meloidogyne sp on tomato
The test compounds were applied as granular formulations of 5% active ingredient on a gypsum carrier to soil infested with root-knot nematodes. Tomato plants were transplanted into the soil. After galling developed in untreated control plants, tomato plants were harvested and the roots assessed for root knot galling. Based on visual estimation, the percentage of the tomato root-mass that was galled was determined. Percent control root-knot was calculated for the treated plants relative to untreated control plants using the following formula: % control of root knot galling=100×((galling level of untreated plants−galling level of treated plants)/galling level of untreated plants)
In this test, compound A which is known from EP-A 1 000 946 as example 1 acted as comparison active ingredient.

[2] = system: root-knot nematode Meloidogyne incognita; test: Soil nematicide assay targeting root-knot nematode Meloidogyne incognita on tomato (soil drench); assay type: in vivo; settings: tomato plants, one month after inoculation with 1000 J2 larvae
Source text: Soil nematicide assay targeting root-knot nematode Meloidogyne incognita on tomato The test compounds were solubilized in acetone and diluted with water and surfactant to the required test concentrations. The test solution was applied as a soil drench to transplanted tomato plants in cells with sandy loam mixed with sand. One thousand root-knot J2 larvae were applied as an aqueous suspension drenched on the soil surface. The plants were maintained in the greenhouse and, one month after inoculation, the plant roots were washed free of soil. The root-knot galls on the root system of each plant were counted. Treatments were replicated three times. Percent control of root-knot was calculated for the treated plants relative to control plants treated with the acetone-surfactant carrier using the following formula: % control of root knot galls=100×((median number of galls on control plants−median number of galls on treated plants)/median number of galls on control plants) In this test, compound A which is known from EP-A 1 000 946 as example 1 acted as comparison active ingredient.

SMILES | % control of root knot galling [1] | % control of root knot galls ([2]; 0.16 kg/ha) | % control of root knot galls ([2]; 0.63 kg/ha)
FC(F)=C(F)CCSc1nc2cccnc2s1 [I.1—1, 2-(3,4,4-Trifluoro-but-3-enylsulfanyl)-thiazolo[5,4-b]pyridine] | 47% | 94% | 100%
FC(F)=C(F)CCSc1nc2ncccc2s1 [compound A] | 25% | 13% | 71%
